In the NIST ThermoML archive (doi:10.1021/acs.jced.6b00149):
Numbers after ± are expanded uncertainties.

Test: refractive index (Na D-line) (dimensionless)
Conditions: 298.15 K; 101.33 kPa; Liquid; Standard Abbe refractometry

Structure (SMILES) | refractive index
CC(C)=O [acetone] | 1.35553 ± 0.001
O=Cc1ccco1 [2-furaldehyde] | 1.52263 ± 0.001
COC(C)(C)C [2-methoxy-2-methylpropane] | 1.36594 ± 0.001
O [water] | 1.33249 ± 0.001
